Measurements: patent publication US20040220164A1, “Triaza compound immunoregulatory agents” (priority 2001, published 2004)
Converted amounts (≈) assume the structure as drawn. Read-outs that look alike come from different tables or passages of the source.

Key:
HIV-1 strain NL4.3 = assay: Anti-HIV-1 assay in MT-4 cells (p24 Ag ELISA, Example 3); format: cell-based
Experimental: Antiviral Assays. For HIV-1, MT-4 cells were infected with the HIV-1 strain NL4.3. Briefly, five-fold dilutions of the compounds (in 100 μl) were added to 96-well flat bottom plates (Iwaki, Japan). Then, to each well, 7.5×10^4 MT-4 cells were added in 50 μl medium, followed by 50 μl of diluted HIV-1 stock (strain NL4.3). Cytopathic effect (CPE) induced by the virus was checked regularly microscopically. When strong CPE was observed (after 3 to 5 days of incubation) in untreated HIV-1 infected cells, the supernatant was collected, stored at −20° C. and analyzed for HIV-1 core antigen by p24 Ag ELISA (NEN™, PerkinElmer Life Sciences, Boston, Mass.). Finally, the IC50 value of the compounds (i.e., the concentration of the compound required for 50% reduction of HIV infection as measured by viral p24 antigen level in the supernatant of infected MT-4 cells) was calculated.

[1] = Cytotoxicity assay (trypan blue exclusion, propidium iodide); format: cell-based, human; conditions: human
Experimental: Cytotoxicity Assay. Cellular toxicity of the compounds was measured by trypan blue exclusion and also by Propidium Iodide by flow cytometry after 3 or 4 days of incubation, in parallel with the CD4 antigen expression. The CC50 value of each CADA analog is the concentration (in μg/ml) required to reduce the viability of the cells by 50%.

HHV-7 (KHR strain) = assay: Anti-HHV-7 assay in SupT1 cells (antigen expression, flow cytometry, Example 3); format: cell-based; conditions: SUP-T1; SupT1 cells; read-out: IC50 HHV-7 (50% reduction of HHV-7 antigen expression)
Experimental: For HHV-7, five-fold dilutions of the compounds were added in 500 μl culture medium in 24-well flat bottom plates (Iwaki, Japan), whereupon 2×10^5 SupT1 cells were added in 400 μl culture medium. After 30 min incubation at room temperature, 100 μl of HHV-7 stock was added to each well. HHV-7-infected and mock-infected SupT1 cells were cultured in a final volume of 1 ml medium in the absence of the compounds. On day 4, half of the medium and the cells were replaced and fresh medium without new compound was added. This procedure was repeated every 2 or 3 days. The CPE was checked regularly microscopically. When CPE was observed, the HHV-7 antigen expression was monitored by flow cytometry, as described previously (Zhang, Y. et al. (1999) “Selective activity of various antiviral compounds against HHV-7 infection Antiviral Res. 43, 23-35.)

CD4 [2] = biological target: T1, CD4 (Homo sapiens, UniProt P01730); assay: CD4 down-modulation, flow cytometry with FITC-conjugated anti-CD4 (SK3) mAb, MT-4 cells; format: cell-based; parameters: To study the effect of the CADA derivatives on surface CD4 antigen expression, MT-4 and SupT1 cells were incubated; endogenous in cells; host or cells: MT-4, SupT1, PBMC; conditions: for IC50: MT-4 cells, day 3, read-out: IC50 CD4 (50% inhibition of extracellular CD4 expression) (converted)
Experimental: Flow Cytometric Analyses. To study the effect of the CADA derivatives on surface CD4 antigen expression, MT-4 and SupT1 cells were incubated with a serial 5-fold dilution of the compounds (50, 10, 2, 0.4 and 0.08 μg/ml) or medium at 37° C. […] Briefly, after washing with phosphate-buffered saline (PBS) containing 2% fetal calf serum (FCS), cells were incubated with FITC-conjugated anti-CD4 (SK3) mAb for 30 min at 4° C. As a negative control for a specific background staining, cells were stained in parallel with Simultest Control γ1/γ^2a (Becton Dickinson). Then the cells were washed, fixed with 1% formaldehyde and analyzed by flow cytometry in a FACScalibur (Becton Dickinson, San Jose, Calif., USA). Data were acquired and analyzed with CellQuest software (Becton Dickinson). For the calculation of the CD4 receptor expression, the mean fluorescence intensity (MFI) of each sample was expressed as percentage of the MFI of control cells (after subtracting the MFI of the isotype control). Finally, the IC50 value of the compounds (i.e., the concentration of the compound required for 50% inhibition of extracellular CD4 expression) was calculated.

CD4 [3] = biological target: T1, CD4; assay: CD4 down-modulation, flow cytometry with FITC-conjugated anti-CD4 (SK3) mAb, SupT1 cells; format: cell-based; parameters: To study the effect of the CADA derivatives on surface CD4 antigen expression, MT-4 and SupT1 cells were incubated; endogenous in cells; host or cells: MT-4, SupT1, PBMC; conditions: day 4, read-out: IC50 CD4 (50% inhibition of extracellular CD4 expression) (converted)
Experimental: Flow Cytometric Analyses. To study the effect of the CADA derivatives on surface CD4 antigen expression, MT-4 and SupT1 cells were incubated with a serial 5-fold dilution of the compounds (50, 10, 2, 0.4 and 0.08 μg/ml) or medium at 37° C. Cell surface CD4 antigen expression was analyzed at day 3 (MT-4) or day 4 (SupT1). Briefly, after washing with phosphate-buffered saline (PBS) containing 2% fetal calf serum (FCS), cells were incubated with FITC-conjugated anti-CD4 (SK3) mAb for 30 min at 4° C. As a negative control for a specific background staining, cells were stained in parallel with Simultest Control γ1/γ^2a (Becton Dickinson). Then the cells were washed, fixed with 1% formaldehyde and analyzed by flow cytometry in a FACScalibur (Becton Dickinson, San Jose, Calif., USA). Data were acquired and analyzed with CellQuest software (Becton Dickinson). For the calculation of the CD4 receptor expression, the mean fluorescence intensity (MFI) of each sample was expressed as percentage of the MFI of control cells (after subtracting the MFI of the isotype control). Finally, the IC50 value of the compounds (i.e., the concentration of the compound required for 50% inhibition of extracellular CD4 expression) was calculated.

[4] = Human immunodeficiency virus 1, MT4, MT-4 cells, read-out: IC50 HIV-1 (NL4.3), p24 Ag ELISA
[5] = MT-4 cells, read-out: CC50 (50% cytotoxic concentration)
[6] = SupT1 cells, read-out: CC50 (50% cytotoxic concentration)
[7] = Human immunodeficiency virus 1, MT4 cells, Table 6, unit inferred, read-out: IC50(HIV-1)
[8] = MT-4 cells, MT4 cells, Table 6, unit inferred, read-out: CC50
[9] = SupT1 cells, Table 6, unit inferred, read-out: CC50

Row | IC50 (HIV-1 strain NL4.3; [4]) [µg/mL] | IC50 (HHV-7 (KHR strain)) [µg/mL] | IC50 (CD4 [2]) [µM] | CD4 down-regulating activity, fold less active than QJ036 (CD4 [2]; compared to QJ036) [fold] | IC50 (CD4 [3]) [µM] | CD4 down-modulating activity compared with CADA or parent analog (in words) (CD4 [2]; structure-activity discussion of Table 5 (MT-4 and SupT1 cells)) | CD4 down-modulating activity, fold less active than CADA (CD4 [2]; compared to CADA, MT-4 cells (stated for some compounds)) [fold] | IC50 (HIV-1 strain NL4.3; [7]) [µg/mL] | Structure (SMILES) | CC50 [1, 5] [µg/mL] | CC50 [1, 6] [µg/mL] | CC50 [1, 8] [µg/mL] | CC50 [1, 9] [µg/mL]
1 | 4.82 (≈ 8.8 µM) | 0.7 (≈ 1.28 µM) | 8.78 | 4 | 9.73 | – | – | – | C=C1CN(S(=O)(=O)c2ccc(C)cc2)CCCN(CC(C)C)CCCN(S(=O)(=O)c2ccc(C)cc2)C1 [Compound 98-035] | > 50 | > 50 | – | –
2 | > 10 | > 50 | > 15.5 | – | > 77.4 | negative effect | – | – | C=C1CN(S(=O)(=O)c2ccc(C)cc2)CCCN(S(=O)(=O)c2ccc(C)cc2)CCCN(S(=O)(=O)c2ccc(C)cc2)C1 [AS112] | 27.8 (≈ 43 µM) | > 50 | – | –
3 | 1.15 (≈ 1.86 µM) | 0.78 (≈ 1.26 µM) | 1.81 | – | 2.41 | – | 3 | – | Cc1ccc(S(=O)(=O)N2CCCN(Cc3ccccc3)CCCN(S(=O)(=O)c3ccc(C)cc3)CC(CCl)C2)cc1 [AS117] | 30.7 (≈ 49.7 µM) | > 50 | – | –
4 | – | – | – | – | – | – | – | 6.7 (≈ 10.1 µM) | C=C1CN(S(=O)(=O)c2ccc(C)cc2)CCCN(Cc2ccccc2)CCCN(S(=O)(=O)c2cccc3c(N(C)C)cccc23)C1 [KKD015, 9-Benzyl-3-methylene-1-(5-dimethylamino-1-naphthalenesulfonyl)-5-p-toluenesulfonyl-1,5,9-triazacyclododecane] | – | – | > 100 | > 100
5 | 8.05 (≈ 14.3 µM) | 0.68 (≈ 1.21 µM) | 11.5 | – | 17.1 | – | – | – | C=C1CN(S(=O)(=O)c2ccc(C)cc2)CCCN(C(=O)OCC)CCCN(S(=O)(=O)c2ccc(C)cc2)C1 [Compound 95-213] | > 50 | > 50 | – | –
6 | – | – | – | – | – | – | – | 1.15 (≈ 1.72 µM) | C=C1CN(S(=O)(=O)c2ccc(C)cc2)CCCN(CC2CCCCC2)CCCN(S(=O)(=O)c2cccc3c(N(C)C)cccc23)C1 [KKD016, 9-methylcyclohexane-3-methylene-1-(5-dimethylamino-1-naphthalenesulfonyl)-5-p-toluenesulfonyl-1,5,9-triazacyclododecane] | – | – | 61.2 (≈ 91.8 µM) | 27.4 (≈ 41.1 µM)
